Earlier results in patent US20050119262A1, “Method for preventing or treating an optic neuropathy with a cox-2 inhibitor and an intraocular pressure reducing agent” (Pharmacia Corporation, priority 2003, published 2005).

Details: patients with ocular hypertension and glaucoma

## CC(=O)Oc1ccccc1C(=O)O [acetylsalicylic acid]
  effect on IOP: no affect on IOP
